Legend:
[1] = Reaction rate of KI with 1O2 (I3− absorbance at 350 nm) under light and magnetic field; format: physicochemical
Procedure: (1) The photosensitizers Rose Bengal (RB) and potassium iodide KI are dissolved in water, with the concentrations of photosensitizer and KI is 10 μmol/L and 10 mmol/L, respectively in the resulting solution. […] The above UV-vis absorption spectra tests are performed in the strength range of the magnetic field from 0 to 850 mT respectively.
(2) The photosensitizer chlorin e6 (Ce6, Chlorin e6) and potassium iodide KI are dissolved in water, with the concentrations of the photosensitizer and KI of 10 μmol/L and 10 mmol/L in the resulting solutions. In a magnetic field with certain strength, the solutions are exposed to a 635 nm LED lamp (light emitting diode) at a power of 5 mW·cm^−2, and tested for absorption spectra every 15 seconds over 5 min, and the absorbance at 350 nm is recorded to obtain absorbance versus time curves. The above UV-vis absorption spectra are obtained at a magnetic field strength range from 0 to 850 mT, respectively.
External magnetic field is supplied by East Transformer (Beijing) EM4 electromagnets. Ultraviolet-visible absorption spectra are tested with Agilent 8453 UV/Visible spectrometer equipped with Agilent 89090A thermostat (±0.1° C.).
Under irradiation conditions, photosensitizer is excited to produce singlet oxygen ^1O2, and KI reacts with ^1O2 to give I2 and target detector, iodine triion I3^−, characterized by absorption bands centered at 300 and 350 nm in UV-vis absorption spectrum. The reaction rate is R, which is proportional to the slope of absorbance-time curve of iodine triion I3^− at 350 nm.
In the present invention, the magnetic field effects (MFEs) is quantified by mfeR, the change rate of the reaction rate R, mfeR=(RB−R0)/R0×100%, where R0 is the reaction rate at a magnetic field strength of 0 mT and RB is the reaction rate at a magnetic field strength of B mT.
(3) The RB/KI solution in experiment (1) of this Example is placed in a magnetic field modulated with square wave (90 s for the first period, a magnetic field strength of 0 mT for the first 45 s and 100 mT for the last 45 s; 60 s for the last three cycles, a magnetic field strength of 0 mT for the first 30 s and 100 mT for the last 30 s). Under 561 nm LED (Light Emitting Diode) irradiation with 5 mW·cm^−2, absorption spectra are tested every 5 seconds over 5 min. and the absorbance at 350 nm is recorded, to obtain an absorbance-time curve, as shown in FIG. 6.

HeLa cells = assay: H2DCFDA fluorescence imaging of intracellular oxidation in HeLa cells; format: cell-based; settings: RB 30 μmol/L, FIG. 11
Procedure: (1) HeLa cells are seeded on sterile glass coverslips and placed in DMEM (comprising FBS) plates for 12 h. Then appropriate amount of 30 μmol/L RB or 0.01 mol/L PBS buffer is added, respectively. After 24 h in dark, H2DCFDA (dichlorofluorescein diacetate, ≥97%, purchased from Sigma-Aldrich) is added to give final concentration of 10 μmol/L and cells are incubated for another 30 min, and then are washed 3 times with PBS buffer.
Said HeLa cells are placed under the magnetic field conditions of 0 mT, 250 mT, 800 mT, respectively, without irradiation or with 10 min light (561 nm, 5 mW·cm^−2). Fluorescence images are obtained using Nikon A1R-si laser scanning confocal microscopy (488 nm excitation, 515±15 nm received fluorescence), where H2DCFDA is the indicator that reacts with cellular singlet oxygen ^1O2 to increase fluorescence emission intensity (excitation wavelength is 504 nm, and emission wavelength is 529 nm).
The change rate of fluorescence intensity in Hela cells added with RB under the conditions of light and magnetic field at 0, 250 or 800 mT is shown in FIG. 12. The change rate of fluorescence intensity is (IB−I0)/I0×100%, IB is the fluorescence intensity at magnetic field strength of B, and I0 is the fluorescence intensity without magnetic field. In FIG. 12, ** is the statistical probability p<0.01; *** is p<0.005, and p<0.05 is considered significant.

HeLa xenograft tumor = HeLa xenograft tumor growth in BALB/c nude mice with photodynamic treatment and magnetic field; format: in vivo; settings: RB 1.0 mg/kg intratumoral, 14 days
Procedure: Twenty-four five-weeks old female BALB/c nude mice are selected, 1×10^6 HeLa cells (in 200 μL 0.01 mol/L PBS buffer) are inoculated subcutaneously into the dorsal right flank of each mouse, and a xenograft tumor model is established (Five-weeks old female BALB/c nude mice are obtained from Beijing Agronomy and housed under standard environmental conditions. All animal procedures are approved by Beijing Agronomy Animal Care and Use Committee). After tumors growing up, 25 μL RB (1.0 mg/kg) or an equal volume of PBS buffer at a concentration of 0.01 mol/L are injected intratumorally.
The treatment conditions for dividing the mice into 8 groups (3 mice each) are as follows: • (1) Injection of PBS buffer-no light-no magnetic field (PBS-dark-0mT); • (2) Injection of PBS buffer-light-no magnetic field (PBS-light-0mT); • (3) Injection of PBS buffer-light-250mT magnetic field (PBS-light-250mT); • (4) Injection of PBS Buffer-Light-800mT magnetic field (PBS-light-800mT); • (5) RB-light-no magnetic field (RB-light-0mT) injection (RB-light-0mT); • (6) Injection of RB-light-100mT magnetic field (RB-light-100mT); • (7) Injection of RB-light-250mT magnetic field (RB-light-250mT); • (8) Inject RB-light-800mT magnetic field (RB-light-800mT).
All groups except group (1) receive light 5 min after injection at wavelength of 400-700 nm and power of 100 mW·cm^−2 and light time of 10 min. The tumor area of mice in groups (3), (4) and (6)-(8) are exposed to static magnetic field by using electromagnet during light exposure.
Test (one): Tumor size is monitored with digital calipers every other day for the following 14 days (peripheral measurements of tumors are performed […]), and tumors are calculated by Volume=Length×Width×[…]. Results for groups (2), (4), (5), (7), (8) are shown in FIG. 16, in which, ** is statistical probability p<0.01; *** is p<0.005, p<0.05 is considered significant. Each group is sacrificed 3 mice on day 14 post-injection, tumor tissues are collected for photographing and weighing, and tumor tissues are removed from groups (2), (3), (4), (5), (7), (8) as shown in FIG. 17; the rate of mass change of the tumor tissue in groups (5), (7), (8) is shown in FIG. 18, and the rate of mass change is (ωB−ω0)/ω0×100%, where ωB is the tumor mass under magnetic field conditions and ω0 is the tumor mass in group (5).

## O=C1OC2(c3cc(I)c(O)c(I)c3Oc3c2cc(I)c(O)c3I)c2c(Cl)c(Cl)c(Cl)c(Cl)c21 [RB, Rose Bengal]
[1]; RB 10 μmol/L, KI 10 mmol/L, 561 nm 5 mW·cm−2, maximum at MF=80-135 mT
  mfeR (change rate of reaction rate R of KI with 1O2): 46%
[1]; RB 10 μmol/L, KI 10 mmol/L, 561 nm 5 mW·cm−2, minimum at MF=14 mT
  mfeR (change rate of reaction rate R of KI with 1O2): 33%
[1]; RB/KI, square-wave modulated field, 100 mT vs 0 mT, FIG. 7
  increase of R value on average compared to 0 mT: about 45%
[1]; RB, MF from 34 to 355 mT, FIG. 5
  mfeR (change rate of reaction rate R of KI with 1O2): > 0%
[1]; RB, MF from 50 to 220 mT, FIG. 5
  mfeR (change rate of reaction rate R of KI with 1O2): > 20%
HeLa cells; absence of magnetic field, vs PBS
  fluorescence intensity of HeLa cells (H2DCFDA): stronger than that with PBS
HeLa cells; irradiation 561 nm 10 min and 250 mT
  fluorescence intensity of HeLa cells (H2DCFDA): stronger than those under the absence of magnetic field and the magnetic field of 800 mT
HeLa xenograft tumor; group (5) RB-light-0mT, 400-700 nm 100 mW·cm−2 10 min
  tumor growth (volume and mass): inhibition of tumor growth
HeLa xenograft tumor; group (6) RB-light-100mT
  magnetic field effect on tumor growth: no significant effect on tumor growth
HeLa xenograft tumor; group (7) RB-light-250mT
  tumor growth (volume and mass): further inhibition of tumor growth
HeLa xenograft tumor; group (8) RB-light-800mT
  magnetic field effect on tumor growth: no significant effect on tumor growth

Source: patent US20250041624A1, “METHOD FOR ENHANCING ACTIVITY OF PHOTOSENSITIZER BY MAGNETIC FIELD” (PEKING UNIVERSITY, priority 2021, published 2025)
